Test results reported in US9914755B2, “Cyclosporin derivatives wherein the MeBmt sidechain has been cyclized” (Allergan, Inc., priority 2015, dated 2018).
≈ marks a conversion by molar mass, not a printed value. Like-named read-outs stand apart in the source and are kept apart here.

Tests used:
[1] = biological target: T1, Human recombinant 6-His tagged cyclophilin D (CypD) (Homo sapiens, UniProt P30405); assay: Protease-free PPIase assay, cyclophilin D; assay type: biochemical
T1 construct: 6-His
Protocol: (§1) Protease-Free PPIase Assay The protease-free PPIase assay measures the rate of cis to trans conversion of a peptide substrate catalyzed by the enzyme cyclophilin A or D. Addition of a cyclophilin inhibitor (e.g., a test compound) slows the catalyzed rate and a Ki value is obtained. 35 mM HEPES pH 7.8, filtered through a 0.2 μm filter. 50 μM DTT was added prior to use each day and then the buffer was stored on ice. […] Human recombinant 6-His tagged cyclophilin D (CypD), prepared by the University of Edinburgh, was used to generate CypD inhibition data. Succinimide-[…]-nitroanilide (SUC-AAPF-pNA) (from Bachem AG, L-1400), 20 mg/ml prepared in 0.5 M LiCl in trifluoroethanol. All readings were taken with an Agilent 8453 Spectrophotometer which consisted of a cuvette holder, stirrer and chiller to maintain a stirred cuvette temperature of 10.0±0.1° C. The temperature was monitored by the use of temperature probe. […] The inhibitor was diluted in 100% DMSO, and then added to the assay to a maximum final concentration of 0.5% DMSO in the assay. […] The absorbance was measured at 330 nm for 300 s or 500 s for blank runs (NOTE: the substrate was added in one quick injection and the measurements started immediately to minimize mixing errors). A first order rate equation was fitted to the absorbance data, for each concentration of inhibitor, to obtain the rate constant (the first 10 to 15 seconds were excluded, as mixing causes errors in this portion of the curve). The catalytic rate was calculated from the enzymatic rate constant minus the background rate constant. An exponential curve was generated using the catalytic rate constants versus the inhibitor concentration to obtain the Ki value for the inhibitor. The Ki value is indicative of the binding affinity between the test compound and cyclophilin A.

[2] = biological target: T2, Human recombinant cyclophilin A (CypA) (Homo sapiens, UniProt P62937); assay: Protease-free PPIase assay, cyclophilin A; assay type: biochemical
T2 construct: purchased Sigma C3805
Protocol: as §1

[3] = Water Solubility Assay (onset of precipitation in buffer); details: 25 °C, pH 7.4, aqueous buffer, kinetic from dmso stock
Protocol: (§2) The aqueous solubility of a compound of Formula I in buffer (pH 7.8) was measured by recording the onset of precipitation of the compound as a function of increasing concentration. The onset of precipitation, if it occurred, was detected by an increase in absorbance at 650 nm.
(§3) Stock solutions of Control and Test Compounds: 10 mM in 100% DMSO.
(§4) 10 mM stock solutions of control and test compounds were prepared in 100% DMSO.
(§5) Assay buffer (247.5 μl) was placed into a flat bottomed transparent 96-well plate. For blank samples, DMSO (2.5 μl) was added. For test and control samples, 2.5 μl of the appropriate DMSO dilution stocks were added to the appropriate well. All test and control compounds were performed in triplicate.
(§6) The plates were sealed with adhesive plate seal and shaken at 250 rpm at 25° C. for 18 h on a plate shaker. After incubation, the plate seals were taken off and any bubbles observed in wells removed. The plates were read on a SpectraMaxM5 with a 5 s pre-shake at 650 nm.
(§7) Data files were transferred to the appropriate worksheet and the solubility range of the compounds was calculated from the data.

physchem = details: 25 °C, pH 7.4, aqueous buffer, kinetic from dmso stock
Protocol: as §2, §3, §4, §5, §6, §7

calcineurin = biological target: T3, calcineurin (Homo sapiens, UniProt P62937+P63098+Q08209); assay: Calcineurin Phosphatase (CaN) Assay; assay type: biochemical; details: in the presence of CypA, 1:1 complex of inhibitor with CypA
T3 construct: purchased Enzo Life Sciences BML-AK804
Excerpt: Calcineurin Phosphatase (CaN) Assay
The calcineurin phosphatase assay is a means for estimating the immunosuppressive potential of a test compound. Calcineurin is a serine-threonine protein phosphatase that on activation dephosphorylates members of the nuclear factor of activated T cells (NFAT), which are important in T lymphocyte activation.
To investigate the immunosuppressive potential of exemplary compounds of Formula I, which are cyclosporin analogs, their ability to inhibit calcineurin activity was measured in the presence and absence of CypA.
The CaN assay kit used is based on a colorimetric assay for measuring calcineurin phosphatase activity, and it is commercially available (Enzo Life Sciences and Calbiochem). Calmodulin is also required for calcineurin activity, and RII phosphopeptide is used as an efficient peptide substrate for calcineurin. […] The detection of free phosphate released is based on the classic Malachite green assay.
Enzo Life Sciences CaN Assay Kit: BML-AK804
For samples ‘without CypA’, a 4-point dilution series of the inhibitor was prepared in duplicate to obtain a final assay concentration of 10, 1, 0.1 and 0.01 μM. For samples ‘with CypA’, a 7-point dilution series was prepared to obtain a 1:1 complex of the inhibitor with CypA; the inhibitor and CypA final assay concentrations of 10, 3.33, 1.11, 0.37, 0.12, 0.04, 0.014 μM were prepared.
using the half area 96 well plates supplied with the kit, 10 μl UPW was added to duplicate wells to provide the non-inhibited control. 10 μl of the inhibitor or the inhibitor/CypA complex was added to the appropriate sample wells. 25 μl of the 2× assay buffer with calmodulin (CaM) was added to all wells, then 5 μl of calcineurin phosphatase (CaN) was added to all wells (40 U per well final concentration) except duplicate ‘no calcineurin blank’ wells to which 5 μL 1× assay buffer was added. The assay plate was placed in an oven at 30° C. for 15 minutes to equilibrate to the reaction temperature. The reaction was started by the addition of 10 μl RII-peptide (0.15 mM final concentration). The reaction was allowed to proceed at 30° C. for a time period in which the reaction is linear for about 60 minutes. The reaction was then terminated by adding 100 μl of the Malachite Green reagent. The color was allowed to develop for 15-30 minutes at room temperature before the absorbance at 620 nm was measured using a plate reader (Molecular Devices—SpectraMax M5). The data were analyzed by subtracting ‘no calcineurin blank’ from all the absorbance readings and plotting the background corrected absorbances against Log10 inhibitor concentration. A sigmoidal-dose response curve was fitted to the data using GraphPad Prism Software.
It exerts its immunosuppressive activity by binding to CypA to form a complex, which then binds to calcineurin and thereby inhibits calcineurin activity.

[4] = human recombinant 6-His CypD, 10 °C, SUC-AAPF-pNA substrate, read-out: CypD Protease-free PPIase Assay Ki
[5] = human recombinant CypA, 10 °C, SUC-AAPF-pNA substrate, read-out: CypA Protease-free PPIase Assay Ki

T1 sequence (P30405 30-207): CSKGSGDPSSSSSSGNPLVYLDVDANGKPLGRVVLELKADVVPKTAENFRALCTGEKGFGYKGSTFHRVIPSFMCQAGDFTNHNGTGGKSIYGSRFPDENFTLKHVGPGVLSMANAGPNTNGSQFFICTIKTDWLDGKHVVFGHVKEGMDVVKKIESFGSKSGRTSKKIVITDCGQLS
T2 sequence (P62937 whole entry): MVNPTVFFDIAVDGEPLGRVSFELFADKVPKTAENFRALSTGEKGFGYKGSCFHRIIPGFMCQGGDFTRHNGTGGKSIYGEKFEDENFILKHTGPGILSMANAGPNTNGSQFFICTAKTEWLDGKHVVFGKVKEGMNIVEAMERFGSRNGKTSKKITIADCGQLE

Row | Compound | Ki [1] [nM] | Ki [2] [nM] | solubility at 18 h [3] [µM] | Ki [1, 4] [nM] | Ki [2, 5] [nM] | solubility at 18 h (physchem) [µM] | IC50 (calcineurin) [nM]
1 | CC(C)C[C@@H]1C(=O)N(C)[C@H](CC(C)C)C(=O)N(C)[C@H](C(C)C)C(=O)N(C)[C@H]([C@@H]2OCC[C@H]2C)C(=O)N[C@H](C)C(=O)N(C)CC(=O)N(C)[C@@H](CC(C)C)C(=O)N[C@H](C(C)C)C(=O)N(C)[C@H](CC(C)C)C(=O)N[C@H](C)C(=O)N[C@@H](C)C(=O)N1C [Compound 9, [(2S)-2-(methylamino)-2-[(2R,3R)-3-methyltetrahydrofuran-2-yl]acetic acid]^1 cyclosporin B] | 200 | 8600 | > 100 |  |  |  | 
2 | CC[C@H]1NC(=O)[C@H]([C@H]2NCC[C@H]2C)N(C)C(=O)[C@@H](C(C)C)N(C)C(=O)[C@@H](CC(C)C)N(C)C(=O)[C@@H](CC(C)C)N(C)C(=O)[C@H](C)NC(=O)[C@@H](C)NC(=O)[C@@H](CC(C)C)N(C)C(=O)[C@@H](C(C)C)NC(=O)[C@H](CC(C)C)N(C)C(=O)[C@@H](C)N(C)C1=O [Compound 20, [(2S)-2-(methylamino)-2-[(2S,3R)-3-methylpyrrolidin-2-yl]acetic acid]^1 [(R)-methyl-Sar]^3 cyclosporin A] |  |  |  | 36 | 149 | > 100 | > 10000
3 | CC[C@@H]1C(=O)N(C)[C@@H](CC(C)C)C(=O)N[C@H](C(C)C)C(=O)N(C)[C@H](CC(C)C)C(=O)N[C@H](C)C(=O)N[C@@H](C)C(=O)N(C)[C@H](CC(C)C)C(=O)N(C)[C@H](CC(C)C)C(=O)N(C)[C@H](C(C)C)C(=O)N(C)[C@H]([C@@H]2OCC[C@H]2C)C(=O)N[C@H](CC)C(=O)N1C [Compound 1, [(2S)-2-(methylamino)-2-[(2R,3R)-3-methyltetrahydrofuran-2-yl]acetic acid]^1 [(R)-ethyl-Sar]^3 cyclosporin A] |  |  |  | 9.7 | 81 | 75 (≈ 90.2 µg/mL) | > 10000
